According to patent US8987195B2 (priority 2012, dated 2015):
Where two headings read alike, the source gives them in different places.

Legend:
[1] = target: HCV NS3/4A protease genotype 1b (Hepatitis C virus genotype 1b, UniProt P26663); assay: HCV NS3/4A protease time-resolved fluorescence (TRF) assay, Ki against genotype 1b; assay type: biochemical; details: IC50 [gt-1b], NS3/4A protease TRF assay, genotype 1b enzyme 0.2 nM
Outline: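 Enzyme 0.2 nM 1b / 0.4 nM A156T / 0.025 nM 3a; 30 min preinc. w/ cpd; 25 nM TRF peptide; 2.5 h RT; ex 340/em 615 time-delayed; 4-param IC50 → Ki = IC50/(1+[S]/KM).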

[2] = test system: HCV genotype 1b replicon; assay: HCV replicon assay, genotype 1b replicon EC50; assay type: cell-based, Hepatitis C virus; details: Hepatitis C virus, HCV replicon, genotype 1b, read-out: EC50 [gt-1b]
Outline: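 Assay format: compound titration on stable replicon cells, no G418 during treatment, 24 to 48 hours. Lysates were assayed for replicon RNA (hybridization/protection or TaqMan) or luciferase; EC50 fitted to four parameters against DMSO.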

Structure (SMILES) | IC50 [1] | EC50 [2] | IC50 ([1]; K+ salt) | EC50 ([2]; K+ salt)
CCc1nc2ccc(OC)cc2c2c1O[C@]1(CC2)C[C@H]2C(=O)N[C@]3(C(=O)NS(=O)(=O)C4(C)CC4)C[C@H]3/C=C\CCCCC[C@H](NC(=O)O[C@H](C)C(C)C)C(=O)N2C1 [Example 433, (2R)-3-methylbutan-2-yl [(2R,6S,12Z,13aS,14aR,16aS)-5′-ethyl-9′-methoxy-14a-{[(1-methylcyclopropyl)sulfonyl]carbamoyl}-5,16-dioxo-1,1′,2′,5,6,7,8,9,10,11,13a,14,14a,15,16,16a-hexadecahydrospiro[cyclopropa[e]pyrrolo[1,2-a][1,4]diazacyclopentadecine-2,3′-pyrano[2,3-c]quinolin]-6-yl]carbamate] | 0.012 nM | 2.17 nM | – | –
CCc1nc2ccc(OC)cc2c2c1O[C@]1(CC2)C[C@H]2C(=O)N[C@]3(C(=O)NS(=O)(=O)C4(C)CC4)C[C@H]3/C=C\CCCCC[C@H](NC(=O)O[C@@H](C)C(C)C)C(=O)N2C1 [Example 434, (2S)-3-methylbutan-2-yl [(2R,6S,12Z,13aS,14aR,16aS)-5′-ethyl-9′-methoxy-14a-{[(1-methylcyclopropyl)sulfonyl]carbamoyl}-5,16-dioxo-1,1′,2′,5,6,7,8,9,10,11,13a,14,14a,15,16,16a-hexadecahydrospiro[cyclopropa[e]pyrrolo[1,2-a][1,4]diazacyclopentadecine-2,3′-pyrano[2,3-c]quinolin]-6-yl]carbamate] | 0.012 nM | 1.78 nM | – | –
COC(=O)N[C@H]1CCCCC/C=C\[C@@H]2C[C@@]2(C(=O)NS(=O)(=O)C2(C)CC2)NC(=O)[C@@H]2C[C@]3(CCc4c(c(C5CC5)nc5ccc(OC)cc45)O3)CN2C1=O [Example 435, methyl [(2R,6S,12Z,13aS,14aR,16aS)-5′-cyclopropyl-9′-methoxy-14a-{[(1-methylcyclopropyl)sulfonyl]carbamoyl}-5,16-dioxo-1,1′,2′,5,6,7,8,9,10,11,13a,14,14a,15,16,16a-hexadecahydrospiro[cyclopropa[e]pyrrolo[1,2-a][1,4]diazacyclopentadecine-2,3′-pyrano[2,3-c]quinolin]-6-yl]carbamate] | – | – | 0.069 nM | 3.08 nM
CCOC(=O)N[C@H]1CCCCC/C=C\[C@@H]2C[C@@]2(C(=O)NS(=O)(=O)C2(C)CC2)NC(=O)[C@@H]2C[C@]3(CCc4c(c(C5CC5)nc5ccc(OC)cc45)O3)CN2C1=O [Example 436, ethyl [(2R,6S,12Z,13aS,14aR,16aS)-5′-cyclopropyl-9′-methoxy-14a-{[(1-methylcyclopropyl)sulfonyl]carbamoyl}-5,16-dioxo-1,1′,2′,5,6,7,8,9,10,11,13a,14,14a,15,16,16a-hexadecahydrospiro[cyclopropa[e]pyrrolo[1,2-a][1,4]diazacyclopentadecine-2,3′-pyrano[2,3-c]quinolin]-6-yl]carbamate] | – | – | 0.029 nM | 1.18 nM
CCCOC(=O)N[C@H]1CCCCC/C=C\[C@@H]2C[C@@]2(C(=O)NS(=O)(=O)C2(C)CC2)NC(=O)[C@@H]2C[C@]3(CCc4c(c(C5CC5)nc5ccc(OC)cc45)O3)CN2C1=O [Example 437, propyl [(2R,6S,12Z,13aS,14aR,16aS)-5′-cyclopropyl-9′-methoxy-14a-{[(1-methylcyclopropyl)sulfonyl]carbamoyl}-5,16-dioxo-1,1′,2′,5,6,7,8,9,10,11,13a,14,14a,15,16,16a-hexadecahydrospiro[cyclopropa[e]pyrrolo[1,2-a][1,4]diazacyclopentadecine-2,3′-pyrano[2,3-c]quinolin]-6-yl]carbamate] | – | – | 0.016 nM | 1 nM
COCCCOc1ccc2nc(C)c3c(c2c1)CC[C@]1(C[C@H]2C(=O)N[C@]4(C(=O)NS(=O)(=O)C5(C)CC5)C[C@H]4/C=C\CCCCC[C@H](NC(=O)OC(C)(C)C)C(=O)N2C1)O3 [Example 438, tert-butyl [(2R,6S,12Z,13aS,14aR,16aS)-9′-(3-methoxypropoxy)-5′-methyl-14a-{[(1-methylcyclopropyl)sulfonyl]carbamoyl}-5,16-dioxo-1,1′,2′,5,6,7,8,9,10,11,13a,14,14a,15,16,16a-hexadecahydrospiro[cyclopropa[e]pyrrolo[1,2-a][1,4]diazacyclopentadecine-2,3′-pyrano[2,3-c]quinolin]-6-yl]carbamate] | 0.023 nM | 3.5 nM | – | –
CCc1nc2ccc(OC)cc2c2c1O[C@]1(C[C@H]2F)C[C@H]2C(=O)N[C@]3(C(=O)NS(=O)(=O)C4(C)CC4)C[C@H]3/C=C\CCCCC[C@H](NC(=O)OC(C)(C)C)C(=O)N2C1 [Example 439, tert-butyl [(1′R,2S,6S,12Z,13aS,14aR,16aS)-5′-ethyl-1′-fluoro-9′-methoxy-14a-{[(1-methylcyclopropyl)sulfonyl]carbamoyl}-5,16-dioxo-1,1′,2′,5,6,7,8,9,10,11,13a,14,14a,15,16,16a-hexadecahydrospiro[cyclopropa[e]pyrrolo[1,2-a][1,4]diazacyclopentadecine-2,3′-pyrano[2,3-c]quinolin]-6-yl]carbamate] | 0.009 nM | 1.55 nM | – | –
COc1ccc2nc(C(F)F)c3c(c2c1)CC[C@]1(C[C@H]2C(=O)N[C@]4(C(=O)NS(=O)(=O)C5(C)CC5)C[C@H]4/C=C\CCCCC[C@H](NC(=O)OCC(C)C)C(=O)N2C1)O3 [Example 440, 2-methylpropyl [(2R,6S,12Z,13aS,14aR,16aS)-5′-(difluoromethyl)-9′-methoxy-14a-{[(1-methylcyclopropyl)sulfonyl]carbamoyl}-5,16-dioxo-1,1′,2′,5,6,7,8,9,10,11,13a,14,14a,15,16,16a-hexadecahydrospiro[cyclopropa[e]pyrrolo[1,2-a][1,4]diazacyclopentadecine-2,3′-pyrano[2,3-c]quinolin]-6-yl]carbamate] | – | – | 0.016 nM | 1.98 nM
COc1ccc2nc(C(F)F)c3c(c2c1)CC[C@]1(C[C@H]2C(=O)N[C@]4(C(=O)NS(=O)(=O)C5(C)CC5)C[C@H]4/C=C\CCCCC[C@H](NC(=O)OCC(C)(C)C)C(=O)N2C1)O3 [Example 441, 2,2-dimethylpropyl [(2R,6S,12Z,13aS,14aR,16aS)-5′-(difluoromethyl)-9′-methoxy-14a-{[(1-methylcyclopropyl)sulfonyl]carbamoyl}-5,16-dioxo-1,1′,2′,5,6,7,8,9,10,11,13a,14,14a,15,16,16a-hexadecahydrospiro[cyclopropa[e]pyrrolo[1,2-a][1,4]diazacyclopentadecine-2,3′-pyrano[2,3-c]quinolin]-6-yl]carbamate] | – | – | 0.016 nM | 1.53 nM
COc1ccc2nc(C(F)F)c3c(c2c1)CC[C@]1(C[C@H]2C(=O)N[C@]4(C(=O)NS(=O)(=O)C5(C)CC5)C[C@H]4/C=C\CCCCC[C@H](NC(=O)O[C@@H](C)C(C)C)C(=O)N2C1)O3 [Example 442, (2S)-3-methylbutan-2-yl [(2R,6S,12Z,13aS,14aR,16aS)-5′-(difluoromethyl)-9′-methoxy-14a-{[(1-methylcyclopropyl)sulfonyl]carbamoyl}-5,16-dioxo-1,1′,2′,5,6,7,8,9,10,11,13a,14,14a,15,16,16a-hexadecahydrospiro[cyclopropa[e]pyrrolo[1,2-a][1,4]diazacyclopentadecine-2,3′-pyrano[2,3-c]quinolin]-6-yl]carbamate] | – | – | 0.024 nM | 1.68 nM
COc1ccc2nc(C(F)F)c3c(c2c1)CC[C@]1(C[C@H]2C(=O)N[C@]4(C(=O)NS(=O)(=O)C5(C)CC5)C[C@H]4/C=C\CCCCC[C@H](NC(=O)O[C@H](C)C(C)C)C(=O)N2C1)O3 [Example 443, (2R)-3-methylbutan-2-yl [(2R,6S,12Z,13aS,14aR,16aS)-5′-(difluoromethyl)-9′-methoxy-14a-{[(1-methylcyclopropyl)sulfonyl]carbamoyl}-5,16-dioxo-1,1′,2′,5,6,7,8,9,10,11,13a,14,14a,15,16,16a-hexadecahydrospiro[cyclopropa[e]pyrrolo[1,2-a][1,4]diazacyclopentadecine-2,3′-pyrano[2,3-c]quinolin]-6-yl]carbamate] | – | – | 0.025 nM | 1.79 nM
CC[C@H](C)OC(=O)N[C@H]1CCCCC/C=C\[C@@H]2C[C@@]2(C(=O)NS(=O)(=O)C2(C)CC2)NC(=O)[C@@H]2C[C@]3(CCc4c(c(C(F)F)nc5ccc(OC)cc45)O3)CN2C1=O [Example 444, (2S)-butan-2-yl [(2R,6S,12Z,13aS,14aR,16aS)-5′-(difluoromethyl)-9′-methoxy-14a-{[(1-methylcyclopropyl)sulfonyl]carbamoyl}-5,16-dioxo-1,1′,2′,5,6,7,8,9,10,11,13a,14,14a,15,16,16a-hexadecahydrospiro[cyclopropa[e]pyrrolo[1,2-a][1,4]diazacyclopentadecine-2,3′-pyrano[2,3-c]quinolin]-6-yl]carbamate] | – | – | 0.014 nM | 1.31 nM
CC[C@@H](C)OC(=O)N[C@H]1CCCCC/C=C\[C@@H]2C[C@@]2(C(=O)NS(=O)(=O)C2(C)CC2)NC(=O)[C@@H]2C[C@]3(CCc4c(c(C(F)F)nc5ccc(OC)cc45)O3)CN2C1=O [Example 445, (2R)-butan-2-yl [(2R,6S,12Z,13aS,14aR,16aS)-5′-(difluoromethyl)-9′-methoxy-14a-{[(1-methylcyclopropyl)sulfonyl]carbamoyl}-5,16-dioxo-1,1′,2′,5,6,7,8,9,10,11,13a,14,14a,15,16,16a-hexadecahydrospiro[cyclopropa[e]pyrrolo[1,2-a][1,4]diazacyclopentadecine-2,3′-pyrano[2,3-c]quinolin]-6-yl]carbamate] | – | – | 0.014 nM | 1.14 nM
